The target of the first series is T1, GST-hLGK1 (human liver type GK) (Homo sapiens, UniProt P35557).
T1 construct: with a BamHI site added to immediately before the initiation codon; made in house; host or cells: Escherichia coli BL21
T1 sequence (P35557 1-464 isoform P35557-3): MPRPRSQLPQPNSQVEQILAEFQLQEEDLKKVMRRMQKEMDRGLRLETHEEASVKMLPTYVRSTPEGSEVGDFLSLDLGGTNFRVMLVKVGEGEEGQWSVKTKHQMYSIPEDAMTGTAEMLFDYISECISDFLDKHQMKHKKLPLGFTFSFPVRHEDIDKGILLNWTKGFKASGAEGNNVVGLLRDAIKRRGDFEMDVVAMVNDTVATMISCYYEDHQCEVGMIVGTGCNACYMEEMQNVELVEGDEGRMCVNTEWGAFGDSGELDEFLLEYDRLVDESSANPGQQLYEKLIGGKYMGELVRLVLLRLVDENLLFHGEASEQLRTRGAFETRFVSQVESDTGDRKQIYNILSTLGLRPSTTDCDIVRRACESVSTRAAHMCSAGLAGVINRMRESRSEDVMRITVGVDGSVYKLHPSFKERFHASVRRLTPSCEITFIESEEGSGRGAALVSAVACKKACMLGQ
The series is described as follows: Determination of GK activity value (Mant-ATP conversion, capillary electrophoresis). In kind it is biochemical. The conditions noted are these: concentration necessary for activating 50% of the maximum GK activity value, 37° C., 60 min, D-glucose added. The procedure:
A solution (5 μL) of test compound in 50% dimethyl sulfoxide was added to each well of 384 well black plate (Nalge Nunc International K.K.). Then, a solution (35 μL) obtained by diluting GST-hLGK1 obtained in Reference Example 2A with measurement buffer (containing 50 mM HEPES (pH 7.4), 200 mM KCl, 5 mM MgCl2, 2.5 mM DTT and 50 μM 2′-(or -3′)-O—(N-methylanthraniloyl)adenosine 5′-triphosphate (Mant-ATP) (Jena Bioscience GmbH)) to 6 μg/mL was added to each well.
Each well was stood at 37° C. for 10 min, and 25 mM D-glucose solution (10 μL) was added to start the reaction.
Each well after the reaction was stood at 37° C. for 60 min, and the reaction was quenched by adding 25 μL of a quenching solution (containing 200 mM HEPES (pH 7.4), 20 mM MgCl2, 200 mM EDTA, 0.03% Triton-X 100, 0.3% Coating 3 reagent (Caliper Life Sciences, Inc.)).
Mant-ATP (substrate) and Mant-ADP (reaction resultant product) were separated from each well after the reaction by a microchip type capillary electrophoresis apparatus 250 HTS (Caliper Life Sciences, Inc.). The reaction rate [(reaction resultant product peak height)/(reaction resultant product peak height+substrate peak height)×100(%)] was calculated from the ratio of the substrate peak height and reaction resultant product peak height obtained by fluorescence detection (excitation wavelength 355 nm, measurement wavelength 460 nm) and used as the index of GK activity.
As a control group, the reaction rate was calculated in the same manner as above except that “solution in 50% dimethyl sulfoxide” was used instead of “solution of test compound in 50% dimethyl sulfoxide”.
The percentage obtained by dividing the reaction rate of the well added with the test compound (test compound addition group) by the reaction rate of the well added with 50% solution in dimethyl sulfoxide alone (control group) was taken as the GK activity value of the test compound, and the concentration of the test compound necessary for activating 50% of the maximum value of the activity value is shown as EC50 value.
In general, EC50 refers to the concentration giving half of the maximal effect. Lower therefore signals an effect from little substance. On to `CN(c1ccc(F)c2cc(-c3nccs3)[nH]c12)S(=O)(=O)c1cccs1` [Example 182, N-[4-fluoro-2-(1,3-thiazol-2-yl)-1H-indol-7-yl]-N-methylthiophene-2-sulfonamide], for which a half-maximal effect (EC50) was put at 29 nM.

Tested on in a further series: not given
Experiment: not given
Conditions: not given
Usually melting point stands for the temperature of the solid-liquid transition. `Cc1ccc(N(C)S(=O)(=O)c2cccs2)c2[nH]c(C(=O)O)cc12` [Example 175, 4-Methyl-7-[methyl (2-thienylsulfonyl)amino]-1H-indole-2-carboxylic acid] returned a melting point of 223 to 225 °C.

`CN(c1ccc(F)c2cc(-c3nccs3)[nH]c12)S(=O)(=O)c1cccs1` [Example 182, N-[4-fluoro-2-(1,3-thiazol-2-yl)-1H-indol-7-yl]-N-methylthiophene-2-sulfonamide] registered a melting point of 197 to 198 °C.

`Cc1nc(-c2cc3cccc(N(C)S(=O)(=O)c4cccs4)c3[nH]2)cs1` [Example 173, N-Methyl-N-[2-(2-methyl-1,3-thiazol-4-yl)-1H-indol-7-yl]thiophene-2-sulfonamide]: the melting point was 161 to 162 °C.

Compound `Cc1ccc(N(C)S(=O)(=O)c2cccs2)c2[nH]c(-c3ncc(CO)s3)cc12` [Example 245, N-{2-[5-(Hydroxymethyl)-1,3-thiazol-2-yl]-4-methyl-1H-indol-7-yl}-N-methylthiophene-2-sulfonamide] returned a melting point of 184 to 185 °C.

`Cc1ccc(N(C)S(=O)(=O)c2cccs2)c2[nH]c(-c3nccs3)cc12` [Example 177, N-Methyl-N-[4-methyl-2-(1,3-thiazol-2-yl)-1H-indol-7-yl]thiophene-2-sulfonamide] gave a melting point of 159 to 160 °C.

(Values after patent publication US8957070B2, “Glucokinase activator compounds, methods of activating glucokinase and methods of treating diabetes and obesity” (Takeda Pharmaceutical Company Limited, priority 2005, dated 2015).)
